US20220296526A1, “CANNABINOID COMPOSITIONS, METHODS OF MAKING SAME AND USES THEREOF” (HEXO OPERATIONS INC., priority 2019, published 2022)
Several values for one entry are separate records, joined by “and”; a condition that tells them apart may be missing. Equal values may be shown once.

Test: DLS particle size tracking around spray drying (nanoemulsion, solubilized carrier, pre-spray dried mixture, re-hydrated powder)
Assay type: physicochemical
Conditions: solubilized carrier alone, 0.4 g/ml
Method: Particle size of all nanoemulsions was measured in water solution at 25° C. using dynamic light scattering (DLS). All samples in the present disclosure have been analyzed at a dilution of 1/20 in purified water using a LiteSizer™ (Anton Paar GmbH, Germany).
The resulting spray dried emulsion powder was analyzed by performing a rehydration and then performing a visual inspection for turbidity and DLS analysis for particle size tracking of the generated emulsion (see Table 9).

**Q.** With `OC[C@@H](O)[C@@H](O)[C@H](O)[C@H](O)CO` [Pearlitol (Mannitol), Mannitol] as the molecule, how does the “Particle Size Carrier” value read?
**A.** 287 nm, poor signal and 225 nm, poor signal
